# Results: ChEMBL document CHEMBL1155426, “Discovery of a novel series of semisynthetic vancomycin derivatives effective against vancomycin-resistant bacteria” (J Med Chem, 2010)
# pKd: −log10 of the molar value.
# Experiments:
# Staphylococcus aureus [1] = test: Antibacterial activity against methicillin-resistant vancomycin-susceptible Staphylococcus aureus SR-3637; assay type: functional; settings: SR3637
# Staphylococcus aureus [2] = test: Antibacterial activity against vancomycin A-resistant Staphylococcus aureus VRS2; assay type: functional
# Enterococcus faecalis [3] = test: Antibacterial activity against vancomycin B-resistant Enterococcus faecalis SR-23630; assay type: functional; settings: SR23630
# Enterococcus faecium [4] = test: Antibacterial activity against vancomycin B-resistant Enterococcus faecium SR-23598; assay type: functional; settings: SR23598
# Staphylococcus aureus [5] = test: Antibacterial activity against vancomycin-susceptible Staphylococcus aureus RN4220; assay type: functional
# [6] = Binding affinity to 8-Amino-octanoyl-D-Ala-D-Ala peptide by surface plasmon resonance
# Enterococcus faecalis [7] = test: Antibacterial activity against vancomycin-susceptible Enterococcus faecalis SR1004; assay type: functional
# Enterococcus faecalis [8] = test: Antibacterial activity against vancomycin A-resistant Enterococcus faecalis SR-7914; assay type: functional; settings: SR7914
# Enterococcus faecium [9] = test: Antibacterial activity against vancomycin-susceptible Enterococcus faecium SR-16972; assay type: functional; settings: SR16972
# Enterococcus faecium [10] = test: Antibacterial activity against vancomycin A-resistant Enterococcus faecium SR-7940; assay type: functional; settings: SR7940
SMILES,MIC (Staphylococcus aureus [1]) [µg/mL],MIC (Staphylococcus aureus [2]) [µg/mL],MIC (Enterococcus faecalis [3]) [µg/mL],MIC (Enterococcus faecium [4]) [µg/mL],MIC (Staphylococcus aureus [5]) [µg/mL],pKd [6],MIC (Enterococcus faecalis [7]) [µg/mL],MIC (Enterococcus faecalis [8]) [µg/mL],MIC (Enterococcus faecium [9]) [µg/mL],MIC (Enterococcus faecium [10]) [µg/mL]
CCCCCC/C=C/c1cc2ccc1Oc1cc3cc(c1O[C@@H]1O[C@H](CO)[C@@H](O)[C@H](O)[C@H]1O[C@H]1C[C@](C)(N)[C@H](O)[C@H](C)O1)Oc1ccc(cc1/C=C/CCCCCC)[C@@H](O)[C@@H](NC(=O)[C@@H](CC(C)C)NC)C(=O)N[C@@H](CC(N)=O)C(=O)N[C@H]3C(=O)N[C@H]1C(=O)N[C@H](C(=O)N[C@H](C(=O)O)c3cc(O)cc(O)c3-c3cc1ccc3O)[C@@H]2O,64,> 64,> 64,> 64,32,4.94,32,> 64,32,> 64
CN[C@H](CC(C)C)C(=O)N[C@H]1C(=O)N[C@@H](CC(N)=O)C(=O)N[C@H]2C(=O)N[C@H]3C(=O)N[C@H](C(=O)N[C@H](C(=O)O)c4cc(O)cc(O)c4-c4cc3ccc4O)[C@H](O)c3ccc(c(/C=C/CCCc4ccccc4)c3)Oc3cc2cc(c3O[C@@H]2O[C@H](CO)[C@@H](O)[C@H](O)[C@H]2O[C@H]2C[C@](C)(N)[C@H](O)[C@H](C)O2)Oc2ccc(cc2/C=C/CCCc2ccccc2)[C@H]1O,64,> 64,> 64,> 64,32,,32,> 64,32,> 64
CN[C@H](CC(C)C)C(=O)N[C@H]1C(=O)N[C@@H](CC(N)=O)C(=O)N[C@H]2C(=O)N[C@H]3C(=O)N[C@H](C(=O)N[C@H](C(=O)O)c4cc(O)cc(O)c4-c4cc3ccc4O)[C@H](O)c3ccc(c(-c4ccccc4OC)c3)Oc3cc2cc(c3O[C@@H]2O[C@H](CO)[C@@H](O)[C@H](O)[C@H]2O[C@H]2C[C@](C)(N)[C@H](O)[C@H](C)O2)Oc2ccc(cc2Cl)[C@H]1O,8,64,> 64,> 64,4,,8,> 64,4,> 64
CN[C@H](CC(C)C)C(=O)N[C@H]1C(=O)N[C@@H](CC(N)=O)C(=O)N[C@H]2C(=O)N[C@H]3C(=O)N[C@H](C(=O)N[C@H](C(=O)O)c4cc(O)cc(O)c4-c4cc3ccc4O)[C@H](O)c3ccc(c(/C=C/c4ccccc4)c3)Oc3cc2cc(c3O[C@@H]2O[C@H](CO)[C@@H](O)[C@H](O)[C@H]2O[C@H]2C[C@](C)(N)[C@H](O)[C@H](C)O2)Oc2ccc(cc2Cl)[C@H]1O,2,16,64,> 64,1,,1,> 64,1,> 64
CN[C@H](CC(C)C)C(=O)N[C@H]1C(=O)N[C@@H](CC(N)=O)C(=O)N[C@H]2C(=O)N[C@H]3C(=O)N[C@H](C(=O)N[C@H](C(=O)O)c4cc(O)cc(O)c4-c4cc3ccc4O)[C@H](O)c3ccc(c(/C=C/c4ccc(OC)cc4)c3)Oc3cc2cc(c3O[C@@H]2O[C@H](CO)[C@@H](O)[C@H](O)[C@H]2O[C@H]2C[C@](C)(N)[C@H](O)[C@H](C)O2)Oc2ccc(cc2Cl)[C@H]1O,2,16,32,> 64,1,,1,> 64,1,> 64
CN[C@H](CC(C)C)C(=O)N[C@H]1C(=O)N[C@@H](CC(N)=O)C(=O)N[C@H]2C(=O)N[C@H]3C(=O)N[C@H](C(=O)N[C@H](C(=O)O)c4cc(O)cc(O)c4-c4cc3ccc4O)[C@H](O)c3ccc(c(/C=C/c4ccc(C(F)(F)F)cc4)c3)Oc3cc2cc(c3O[C@@H]2O[C@H](CO)[C@@H](O)[C@H](O)[C@H]2O[C@H]2C[C@](C)(N)[C@H](O)[C@H](C)O2)Oc2ccc(cc2Cl)[C@H]1O,2,64,2,32,1,,1,64,1,> 64
CN[C@H](CC(C)C)C(=O)N[C@H]1C(=O)N[C@@H](CC(N)=O)C(=O)N[C@H]2C(=O)N[C@H]3C(=O)N[C@H](C(=O)N[C@H](C(=O)O)c4cc(O)cc(O)c4-c4cc3ccc4O)[C@H](O)c3ccc(c(-c4ccccc4)c3)Oc3cc2cc(c3O[C@@H]2O[C@H](CO)[C@@H](O)[C@H](O)[C@H]2O[C@H]2C[C@](C)(N)[C@H](O)[C@H](C)O2)Oc2ccc(cc2Cl)[C@H]1O,4,64,64,> 64,4,,4,> 64,2,> 64
CN[C@H](CC(C)C)C(=O)N[C@H]1C(=O)N[C@@H](CC(N)=O)C(=O)N[C@H]2C(=O)N[C@H]3C(=O)N[C@H](C(=O)N[C@H](C(=O)O)c4cc(O)cc(O)c4-c4cc3ccc4O)[C@H](O)c3ccc(c(-c4ccc(OC)cc4)c3)Oc3cc2cc(c3O[C@@H]2O[C@H](CO)[C@@H](O)[C@H](O)[C@H]2O[C@H]2C[C@](C)(N)[C@H](O)[C@H](C)O2)Oc2ccc(cc2Cl)[C@H]1O,4,> 64,> 64,> 64,4,,4,> 64,2,> 64
CCCCCC/C=C/c1cc2ccc1Oc1cc3cc(c1O[C@@H]1O[C@H](CO)[C@@H](O)[C@H](O)[C@H]1O[C@H]1C[C@](C)(N)[C@H](O)[C@H](C)O1)Oc1ccc(cc1Cl)[C@@H](O)[C@@H](NC(=O)[C@@H](CC(C)C)NC)C(=O)N[C@@H](CC(N)=O)C(=O)N[C@H]3C(=O)N[C@H]1C(=O)N[C@H](C(=O)N[C@H](C(=O)O)c3cc(O)cc(O)c3-c3cc1ccc3O)[C@@H]2O,2,> 64,> 64,> 64,1,5.42,2,> 64,2,> 64
CN[C@H](CC(C)C)C(=O)N[C@H]1C(=O)N[C@@H](CC(N)=O)C(=O)N[C@H]2C(=O)N[C@H]3C(=O)N[C@H](C(=O)N[C@H](C(=O)O)c4cc(O)cc(O)c4-c4cc3ccc4O)[C@H](O)c3ccc(c(/C=C/CCCc4ccccc4)c3)Oc3cc2cc(c3O[C@@H]2O[C@H](CO)[C@@H](O)[C@H](O)[C@H]2O[C@H]2C[C@](C)(N)[C@H](O)[C@H](C)O2)Oc2ccc(cc2Cl)[C@H]1O,2,> 64,> 64,> 64,1,,1,> 64,2,> 64
CN[C@H](CC(C)C)C(=O)N[C@H]1C(=O)N[C@@H](CC(N)=O)C(=O)N[C@H]2C(=O)N[C@H]3C(=O)N[C@H](C(=O)N[C@H](C(=O)O)c4cc(O)cc(O)c4-c4cc3ccc4O)[C@H](O)c3ccc(c(/C=C/c4ccc(-c5ccccc5)cc4)c3)Oc3cc2cc(c3O[C@@H]2O[C@H](CO)[C@@H](O)[C@H](O)[C@H]2O[C@H]2C[C@](C)(N)[C@H](O)[C@H](C)O2)Oc2ccc(cc2Cl)[C@H]1O,0.5,> 64,2,0.5,0.25,,0.25,32,0.25,64
C/C=C/c1cc2ccc1Oc1cc3cc(c1O[C@@H]1O[C@H](CO)[C@@H](O)[C@H](O)[C@H]1O[C@H]1C[C@](C)(N)[C@H](O)[C@H](C)O1)Oc1ccc(cc1/C=C/C)[C@@H](O)[C@@H](NC(=O)[C@@H](CC(C)C)NC)C(=O)N[C@@H](CC(N)=O)C(=O)N[C@H]3C(=O)N[C@H]1C(=O)N[C@H](C(=O)N[C@H](C(=O)O)c3cc(O)cc(O)c3-c3cc1ccc3O)[C@@H]2O,2,64,> 64,> 64,1,,2,> 64,1,> 64
C/C=C/c1cc2ccc1Oc1cc3cc(c1O[C@@H]1O[C@H](CO)[C@@H](O)[C@H](O)[C@H]1O[C@H]1C[C@](C)(N)[C@H](O)[C@H](C)O1)Oc1ccc(cc1/C=C/CCCCCC)[C@@H](O)[C@@H]1NC(=O)[C@H](NC(=O)[C@@H]3NC(=O)[C@H](CC(N)=O)NC(=O)[C@H](NC(=O)[C@@H](CC(C)C)NC)[C@@H]2O)c2ccc(O)c(c2)-c2c(O)cc(O)cc2[C@@H](C(=O)O)NC1=O,64,> 64,> 64,> 64,32,,32,> 64,32,> 64
CN[C@H](CC(C)C)C(=O)N[C@H]1C(=O)N[C@@H](CC(N)=O)C(=O)N[C@H]2C(=O)N[C@H]3C(=O)N[C@H](C(=O)N[C@H](C(=O)O)c4cc(O)cc(O)c4-c4cc3ccc4O)[C@H](O)c3ccc(c(Cl)c3)Oc3cc2cc(c3O[C@@H]2O[C@H](CO)[C@@H](O)[C@H](O)[C@H]2O[C@H]2C[C@](C)(N)[C@H](O)[C@H](C)O2)Oc2ccc(cc2Cl)[C@H]1O [VANCOMYCIN],,> 64,,> 64,,5.47,2,> 64,,> 64
